Laboratory results from US4746349A, “Method and compositions for suppressing the nitrification of ammonium in plant growth medium” (American Cyanamid Company, priority 1986, dated 1988).
“And” between values parts separate entries of the source, which are not always exact repeats. Identical values can stand only once. Counter-ions that a name gives are not always drawn.

What was measured:
Nitrabacter = assay: Nitrite in ammonium amended field soil incubated at 38° C.; conditions: soil 38° C.; for Nitrite, reported as nitrogen: 0.50 ppm, 200 ppm N
Protocol: (§1) Determination of Nitrification Inhibition of Soil amended with 200 ppm of nitrogen as ammonium sulfate and 0.5 ppm of Nitrapyrin or 0.5 ppm of Maduramicin, monoammonium salt.
(§2) Soil samples prepared as described in Example 1 above are incubated at 38° C. for 20 weeks. Samples are taken at intervals during the 20 week period, extracted with 2M KCl (10:1 v/w), and assayed for ammonium nitrite and nitrate by standard steam distillation methods.

Nitrosomonos = assay: Nitrification of ammonium amended field soil incubated at 38° C. (ammonium recovery, nitrate); conditions: soil 38° C.; for Ammonium Recovery, reported as nitrogen / Nitrate, reported as nitrogen: 0.50 ppm, 200 ppm N
Protocol: as §1, §2

[1] = system: corn (Dekalb T2000, B73×LH 38); assay: Field evaluation: corn ear leaf tissue nitrogen, silt loam plots; format: in vivo; conditions: inhibitor 0.11 kg/ha, ear leaf at silking
Nitrobacter spp. = assay: Nitrite nitrogen in ammonium amended soil incubated at 25° C.; conditions: soil 25° C., 200 ppm N
Protocol: Determination of nitrite nitrogen and nitrate nitrogen in soil prepared in Example 1 above, which is amended with 200 ppm of nitrogen as aqueous ammonium sulfate, […], is determined using the nitrite and nitrate analysis of the American Organization of Analytical Chemists (AOAC pp. 653-655).

Urease = Urease activity of urea amended soil, 38° C., 24 hrs; format: biochemical
Protocol: Urease activity: Five grams (5 g) oven-dry soil is treated with 5 ml of aqueous urea solution (1000 ug/g soil), with or without the test compound, and incubated in 65 ml screw-capped glass bottles at 38° C. for 24 hrs. Three replicates of each treatment are established. Phenylphosphorodiamide (PPD) is used as a urease inhibitor for comparison with Maduramicin monoammonium salt. Urea remaining is determined after extracting the soil for 60 minutes (with shaking) with 50 ml of 2M KCl containing 0.5 ug/ml of phenylmercuric acetate and filtering the soil suspension. Urea in the extract is determined colorimetrically (Douglas & Bremner, 1970). The percentage inhibition is calculated from (A-B)/(C-B) X 100-% inhibition; where A=the amount of urea found after incubation with the compound, B=the amount of urea found in the non-treated soil, and C=the amount of urea added.

With `CO[C@@H]1[C@@H](OC)[C@H](C)[C@@](O)(CC(=O)O)O[C@H]1[C@H](C)[C@H]1O[C@@]2(CC[C@@](C)([C@H]3CC[C@@](C)([C@@H]4O[C@@H]([C@H]5O[C@](C)(O)[C@H](C)C[C@@H]5C)C[C@@H]4O[C@@H]4C[C@H](OC)[C@@H](OC)[C@H](C)O4)O3)O2)C[C@H](O)[C@H]1C` [Maduramicin monoammonium salt, Maduramicin] as the molecule, how does the “Activity against Nitrabacter, in words” value (Nitrabacter; 0.5 ppm) read?
The value was “no activity”.

What about the “Nitrite, reported as nitrogen” value (Nitrabacter; week 0) of the same molecule?
The value was 9 ppm.

What about the “Nitrite, reported as nitrogen” value (Nitrabacter; week 1) of the same molecule?
The value was 8 ppm.

And the “Nitrite, reported as nitrogen” value (Nitrabacter; week 2)?
The value was 4 ppm.

What about the “Nitrite, reported as nitrogen” value (Nitrabacter; week 4) of the same molecule?
Its value is 3 ppm.

And the “Nitrite, reported as nitrogen” value (Nitrabacter; week 7)?
The value was -5 ppm.

And the “Nitrite, reported as nitrogen” value (Nitrabacter; week 9)?
Its value is 9 ppm.

And the “Nitrite, reported as nitrogen” value (Nitrabacter; week 12)?
The value was 6 ppm.

What about the “Nitrite, reported as nitrogen” value (Nitrabacter; week 16) of the same molecule?
Its value is 19 ppm.

What about the “Nitrite, reported as nitrogen” value (Nitrabacter; week 20) of the same molecule?
Its value is 37 ppm.

And the “Activity against Nitrosomonos, in words” value (Nitrosomonos; 0.5 ppm)?
The value was “good activity”.

What about the “Nitrification inhibition compared with nitrapyrin, in words” value (Nitrosomonos; 0.5 ppm, 20 weeks) of the same molecule?
Its value is “slightly better than that obtained with nitrapyrin”.

And the “Ammonium Recovery, reported as nitrogen” value (Nitrosomonos; week 0)?
The value was 193 ppm.

And the “Nitrate, reported as nitrogen” value (Nitrosomonos; week 0)?
The value was 18 ppm.

What about the “Ammonium Recovery, reported as nitrogen” value (Nitrosomonos; week 1) of the same molecule?
The value was 178 ppm.

What about the “Nitrate, reported as nitrogen” value (Nitrosomonos; week 1) of the same molecule?
The value was 20 ppm.

And the “Ammonium Recovery, reported as nitrogen” value (Nitrosomonos; week 2)?
The value was 193 ppm.

What about the “Nitrate, reported as nitrogen” value (Nitrosomonos; week 2) of the same molecule?
Its value is 17 ppm.

What about the “Ammonium Recovery, reported as nitrogen” value (Nitrosomonos; week 4) of the same molecule?
The value was 199 ppm.

And the “Nitrate, reported as nitrogen” value (Nitrosomonos; week 4)?
Its value is 9 ppm.

And the “Ammonium Recovery, reported as nitrogen” value (Nitrosomonos; week 7)?
Its value is 208 ppm.

What about the “Nitrate, reported as nitrogen” value (Nitrosomonos; week 7) of the same molecule?
Its value is 15 ppm.

And the “Ammonium Recovery, reported as nitrogen” value (Nitrosomonos; week 9)?
Its value is 168 ppm.

And the “Nitrate, reported as nitrogen” value (Nitrosomonos; week 9)?
Its value is 52 ppm.

And the “Ammonium Recovery, reported as nitrogen” value (Nitrosomonos; week 12)?
The value was 154 ppm.

What about the “Nitrate, reported as nitrogen” value (Nitrosomonos; week 12) of the same molecule?
The value was 76 ppm.

And the “Ammonium Recovery, reported as nitrogen” value (Nitrosomonos; week 16)?
The value was 129 ppm.

And the “Nitrate, reported as nitrogen” value (Nitrosomonos; week 16)?
The value was 112 ppm.

And the “Ammonium Recovery, reported as nitrogen” value (Nitrosomonos; week 20)?
Its value is 95 ppm.

And the “Nitrate, reported as nitrogen” value (Nitrosomonos; week 20)?
Its value is 111 ppm.

And the “Corn Leaf Tissue Analysis (total N)” value ([1]; NH3 84 kg N/ha)?
Its value is 257 10^2 ug/g.

What about the “Corn Leaf Tissue Analysis (total N)” value ([1]; NH3 168 kg N/ha) of the same molecule?
The value was 268 10^2 ug/g.

What about the “Concentration of nitrite nitrogen” value (Nitrobacter spp.; 0.10 ppm, week 0) of the same molecule?
The value was 6 ppm.

What about the “Concentration of nitrite nitrogen” value (Nitrobacter spp.; 0.10 ppm, week 1) of the same molecule?
Its value is 17 ppm.

And the “Concentration of nitrite nitrogen” value (Nitrobacter spp.; 0.10 ppm, week 2)?
Its value is 2 ppm.

And the “Concentration of nitrite nitrogen” value (Nitrobacter spp.; 0.10 ppm, week 4)?
Its value is 3 ppm.

What about the “Concentration of nitrite nitrogen” value (Nitrobacter spp.; 0.10 ppm, week 7) of the same molecule?
The value was 12 ppm.

What about the “Concentration of nitrite nitrogen” value (Nitrobacter spp.; 0.10 ppm, week 9) of the same molecule?
The value was 49 ppm.

And the “Concentration of nitrite nitrogen” value (Nitrobacter spp.; 0.10 ppm, week 12)?
Its value is 9 ppm.

And the “Concentration of nitrite nitrogen” value (Nitrobacter spp.; 0.10 ppm, week 16)?
The value was 14 ppm.

What about the “Concentration of nitrite nitrogen” value (Nitrobacter spp.; 0.10 ppm, week 20) of the same molecule?
The value was 56 ppm.

And the “Concentration of nitrite nitrogen” value (Nitrobacter spp.; 0.25 ppm, week 0)?
The value was 7 ppm.

What about the “Concentration of nitrite nitrogen” value (Nitrobacter spp.; 0.25 ppm, week 1) of the same molecule?
The value was 2 ppm.

What about the “Concentration of nitrite nitrogen” value (Nitrobacter spp.; 0.25 ppm, week 2) of the same molecule?
The value was 7 ppm.

And the “Concentration of nitrite nitrogen” value (Nitrobacter spp.; 0.25 ppm, week 4)?
The value was 0 ppm.

What about the “Concentration of nitrite nitrogen” value (Nitrobacter spp.; 0.25 ppm, week 7) of the same molecule?
Its value is -5 ppm.

What about the “Concentration of nitrite nitrogen” value (Nitrobacter spp.; 0.25 ppm, week 9) of the same molecule?
The value was 12 ppm.

And the “Concentration of nitrite nitrogen” value (Nitrobacter spp.; 0.25 ppm, week 12)?
The value was 0 ppm.

What about the “Concentration of nitrite nitrogen” value (Nitrobacter spp.; 0.25 ppm, week 16) of the same molecule?
Its value is -2 ppm.

And the “Concentration of nitrite nitrogen” value (Nitrobacter spp.; 0.25 ppm, week 20)?
The value was 33 ppm.

And the “Concentration of nitrite nitrogen” value (Nitrobacter spp.; 0.50 ppm, week 0)?
Its value is 8 ppm.

And the “Concentration of nitrite nitrogen” value (Nitrobacter spp.; 0.50 ppm, week 1)?
Its value is 10 ppm.

And the “Concentration of nitrite nitrogen” value (Nitrobacter spp.; 0.50 ppm, week 2)?
Its value is 4 ppm.

And the “Concentration of nitrite nitrogen” value (Nitrobacter spp.; 0.50 ppm, week 4)?
The value was 4 ppm.

And the “Concentration of nitrite nitrogen” value (Nitrobacter spp.; 0.50 ppm, week 7)?
The value was -8 ppm.

What about the “Concentration of nitrite nitrogen” value (Nitrobacter spp.; 0.50 ppm, week 9) of the same molecule?
Its value is -4 ppm.

What about the “Concentration of nitrite nitrogen” value (Nitrobacter spp.; 0.50 ppm, week 12) of the same molecule?
The value was 4 ppm.

What about the “Concentration of nitrite nitrogen” value (Nitrobacter spp.; 0.50 ppm, week 16) of the same molecule?
Its value is -13 ppm.

And the “Concentration of nitrite nitrogen” value (Nitrobacter spp.; 0.50 ppm, week 20)?
The value was 14 ppm.

And the “% INHIBITION (urease)” value (Urease; (A-B)/(C-B) X 100, urea 1000 ug/g soil)?
The value was 16%.

What about the “AVERAGE amount of urea remaining” value (Urease; average of 3 replicates, urea 1000 ug/g soil) of the same molecule?
Its value is 483 µg/g.

And the “AMOUNT REMAINING (urea)” value (Urease; single replicates, urea 1000 ug/g soil)?
The value was 492 µg/g and 477 µg/g.
